Reference: publication PMC5435539 (Journal of applied toxicology : JAT, 2017)
Like-named read-outs stand apart in the source and are kept apart here.

Experiments:
[1] = system: MCF-7 breast cancer cells; test: Alamar Blue cell viability assay, 72 h; assay type: cell-based; conditions: read-out: IC50 MCF-7 cell viability, 72 h
human CYP2C19 = human CYP2C19 (Homo sapiens, UniProt P33261); test: Fluorometric CYP inhibition assay; assay type: biochemical; conditions: read-out: IC50 CYP2C19 activity; recombinant human CYP2C19, CEC 25 μM
[2] = system: CYP1A1 protein expression; test: B[a]P-induced CYP1A1 protein expression; assay type: cell-based; conditions: data not shown
human CYP1B1 = target: T1, human CYP1B1 (Homo sapiens, UniProt Q16678); test: Fluorometric CYP inhibition assay; assay type: biochemical; conditions: recombinant human CYP1B1
T1 sequence (Q16678 1-543): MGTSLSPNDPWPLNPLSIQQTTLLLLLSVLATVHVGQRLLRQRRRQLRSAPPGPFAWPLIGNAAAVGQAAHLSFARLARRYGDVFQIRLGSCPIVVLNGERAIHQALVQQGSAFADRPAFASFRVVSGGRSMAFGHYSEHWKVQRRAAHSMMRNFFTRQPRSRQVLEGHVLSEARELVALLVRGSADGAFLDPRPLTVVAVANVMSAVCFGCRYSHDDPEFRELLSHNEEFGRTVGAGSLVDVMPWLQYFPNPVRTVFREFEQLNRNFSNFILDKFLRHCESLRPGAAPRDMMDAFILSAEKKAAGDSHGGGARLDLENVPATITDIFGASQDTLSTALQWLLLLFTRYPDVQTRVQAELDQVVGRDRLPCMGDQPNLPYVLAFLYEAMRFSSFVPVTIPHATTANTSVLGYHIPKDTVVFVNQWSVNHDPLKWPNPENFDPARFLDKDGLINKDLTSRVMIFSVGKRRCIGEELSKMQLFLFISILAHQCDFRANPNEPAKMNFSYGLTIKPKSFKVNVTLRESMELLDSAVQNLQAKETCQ

MCF-7 cells [3] = test: Alamar Blue cell viability assay, 24 h; assay type: cell-based; conditions: read-out: IC50 MCF-7 (Alamar Blue), 24 h treatment
[4] = system: MCF-10A breast epithelial cells; test: Cell viability assay; assay type: cell-based, human; conditions: for IC50 MCF-10A: 24 h exposure, 1 nM-100 μM, MTS or Alamar Blue, mean ±SEM; for IC50: Homo sapiens, MCF-10A, 24 h, read-out: IC50 MCF-10A
human CYP3A4 = human CYP3A4 (Homo sapiens, UniProt P08684); test: Fluorometric CYP inhibition assay; assay type: biochemical; conditions: read-out: IC50 CYP3A4 activity; recombinant human CYP3A4, BFC 50 μM
[5] = system: HT29 colon carcinoma cells; test: Cell viability assay; assay type: cell-based; conditions: for IC50 HT29: 24 h exposure, 1 nM-100 μM, MTS or Alamar Blue, mean ±SEM; for IC50: Homo sapiens, HT-29, 24 h, read-out: IC50 HT29
MCF-7 cells [6] = test: Annexin V-7AAD apoptosis assay; assay type: cell-based; conditions: 1 μM, 24 h, AnnexinV-7AAD
CYP1A1 mRNA = test: Real-time quantitative RT-PCR, B[a]P-induced gene expression in MCF-7 cells; assay type: cell-based; conditions: Gg 10-100 nM with B[a]P, 24 h
human CYP1A1 = target: T2, human CYP1A1 (Homo sapiens, UniProt P04798); test: Fluorometric CYP inhibition assay; assay type: biochemical
T2 sequence (P04798 1-512): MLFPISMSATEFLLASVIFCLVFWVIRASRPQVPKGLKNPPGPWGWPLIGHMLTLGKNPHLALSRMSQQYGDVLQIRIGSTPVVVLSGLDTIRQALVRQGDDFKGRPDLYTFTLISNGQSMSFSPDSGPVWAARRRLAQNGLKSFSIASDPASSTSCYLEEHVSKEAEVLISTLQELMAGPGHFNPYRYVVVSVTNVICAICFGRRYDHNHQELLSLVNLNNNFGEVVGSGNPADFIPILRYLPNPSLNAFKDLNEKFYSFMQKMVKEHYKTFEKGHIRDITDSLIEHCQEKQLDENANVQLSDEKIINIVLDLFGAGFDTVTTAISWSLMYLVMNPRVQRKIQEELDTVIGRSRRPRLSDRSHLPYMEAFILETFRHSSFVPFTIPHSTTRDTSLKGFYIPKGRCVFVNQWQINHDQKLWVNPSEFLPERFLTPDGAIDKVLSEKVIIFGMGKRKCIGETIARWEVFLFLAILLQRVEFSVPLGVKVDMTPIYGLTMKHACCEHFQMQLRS

CYP1 enzymes mRNA = test: Endogenous CYP1 mRNA expression in breast cancer cells; assay type: cell-based; conditions: Gg alone, data not shown
[7] = system: MCF-10A breast epithelial cells; test: Reactive oxygen species; assay type: cell-based, human; conditions: 2 h, MCF-10A cells
CYP1A2 mRNA = test: Real-time quantitative RT-PCR, B[a]P-induced gene expression in MCF-7 cells; assay type: cell-based; conditions: Gg 10-100 nM with B[a]P, 24 h
[8] = system: CCD18 Co normal colon cells; test: Cell viability assay; assay type: cell-based; conditions: for IC50 CCD18 Co: 24 h exposure, 1 nM-100 μM, MTS or Alamar Blue, mean ±SEM

human CYP2C19, sequence (P33261 whole entry): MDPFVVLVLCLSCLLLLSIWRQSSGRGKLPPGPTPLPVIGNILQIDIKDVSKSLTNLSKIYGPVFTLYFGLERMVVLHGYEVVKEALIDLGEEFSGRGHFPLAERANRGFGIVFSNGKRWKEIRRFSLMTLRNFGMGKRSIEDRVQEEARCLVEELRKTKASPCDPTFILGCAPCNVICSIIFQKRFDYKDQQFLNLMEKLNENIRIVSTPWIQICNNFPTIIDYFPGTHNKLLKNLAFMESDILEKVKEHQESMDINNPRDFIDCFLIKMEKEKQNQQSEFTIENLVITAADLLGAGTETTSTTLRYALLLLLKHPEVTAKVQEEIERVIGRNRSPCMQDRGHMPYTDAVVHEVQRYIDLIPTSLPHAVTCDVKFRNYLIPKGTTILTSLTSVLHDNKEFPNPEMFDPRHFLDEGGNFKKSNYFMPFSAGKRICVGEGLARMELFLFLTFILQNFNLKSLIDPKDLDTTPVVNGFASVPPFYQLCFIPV
human CYP3A4, sequence (P08684 whole entry): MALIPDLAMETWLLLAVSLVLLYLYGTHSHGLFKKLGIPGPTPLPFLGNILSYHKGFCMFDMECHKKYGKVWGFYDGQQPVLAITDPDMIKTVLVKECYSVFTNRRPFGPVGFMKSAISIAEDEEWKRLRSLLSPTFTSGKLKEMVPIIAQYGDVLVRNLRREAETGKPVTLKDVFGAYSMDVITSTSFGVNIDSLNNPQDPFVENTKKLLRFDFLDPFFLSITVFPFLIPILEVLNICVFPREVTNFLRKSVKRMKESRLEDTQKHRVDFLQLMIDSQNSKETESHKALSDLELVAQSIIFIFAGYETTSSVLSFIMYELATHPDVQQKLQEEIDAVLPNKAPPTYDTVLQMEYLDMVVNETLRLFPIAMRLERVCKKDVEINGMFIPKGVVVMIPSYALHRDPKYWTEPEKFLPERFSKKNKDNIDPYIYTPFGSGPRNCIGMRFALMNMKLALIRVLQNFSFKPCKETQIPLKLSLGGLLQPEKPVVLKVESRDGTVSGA

CC/C(=C(\c1ccc(O)cc1)c1ccc(OCCN(C)C)cc1)c1ccccc1 [4OH-Tam, 4-hydroxy-tamoxifen]
IC50 ([1]; Homo sapiens, MCF7, 72 h): 2.6 µM

CCC1(c2ccccc2)C(=O)NC(=O)N(Cc2ccccc2)C1=O (single isomer, unassigned; (-)) [NBPB, (−)-N-3-benzyl-phenobarbital, reference compound]
IC50 (human CYP2C19): 0.3 ± 0.01 µM

glaucarubulone glucoside [Gg]
effect on B[a]P-mediated induced CYP1A1 protein expression [2]: could not appreciably suppress
inhibition of CYP1B1 activity (human CYP1B1): moderately inhibited
IC50 ([1]; 72 h exposure, Alamar Blue): 0.121 µM
IC50 (MCF-7 cells [3]): 3.52 ± 0.918 µM
IC50 MCF-10A [4]: NI (No inhibition (<10% inhibition at 60 μM))
IC50 (human CYP3A4): 1.31 ± 0.49 µM
IC50 HT29 [5]: NI (No inhibition (<10% inhibition at 60 μM))
early apoptosis (MCF-7 cells [6]): 26.5 ± 9.5%
effect on B[a]P-induced CYP1A1 mRNA expression (CYP1A1 mRNA): inhibited B[a]P-induced CYP1A1 mRNA expression in a dose-dependent fashion
mode of inhibition of CYP1A1 (human CYP1A1; Eadie-Hofstee plots): non-competitive
IC50 (human CYP1A1; read-out: IC50 CYP1A1 activity, recombinant human CYP1A1, CEC 0.5 μM): 6.93 ± 0.31 µM
Ki (human CYP1A1; read-out: Ki CYP1A1, Eadie-Hofstee plots, non-competitive inhibition): 7.1 ± 1.44 µM
effect on endogenous mRNA expression of CYP1 enzymes (CYP1 enzymes mRNA): did not appreciably affect
effect on 1,6-BPQ-mediated increases in ROS production ([7]; Gg 1 μM with 1,6-BPQ 2 μM): effectively suppressed
IC50 (human CYP2C19): 19.4 ± 1.11 µM
effect on B[a]P-induced CYP1A2 mRNA expression (CYP1A2 mRNA): sustained inhibition

O=C1C=Cc2ccc3c4c(ccc1c24)-c1ccccc1C3=O [1,6-BPQ, benzo[a]pyrene-1,6-quinone, reference compound]
increase in ROS levels ([7]; 1,6-BPQ 2 μM): 2 fold

CC(=O)O[C@H]1C(=O)O[C@@H]2C[C@H]3C(C)=CC(=O)[C@@H](O)[C@]3(C)[C@H]3[C@]4(O)OC[C@]32[C@@H]1[C@@H](C)[C@H]4O [(−)-Holacanthone, (−)-holacanthone]
IC50 ([8]; Homo sapiens, CCD-18Co, 24 h, read-out: IC50 CCD18 Co): < 5 µM
IC50 [4]: 0.3 µM
IC50 [5]: 9.91 ± 0.52 µM

COc1cc2ccc(=O)oc2cc1O [Scopoletin, scopoletin]
IC50 CCD18 Co [8]: NI (No inhibition (<10% inhibition at 60 μM))
inhibition of viability of CCD18Co normal colon cells ([8]; at 60 μM, 24 h): < 10%
IC50 MCF-10A [4]: NI (No inhibition (<10% inhibition at 60 μM))
IC50 [5]: 19.3 ± 0.348 µM

COc1cccc2c1C(=O)c1c(O)c3c(c(O)c1C2=O)C[C@@](O)(C(=O)CO)C[C@@H]3O[C@H]1C[C@H](N)[C@H](O)[C@H](C)O1 [Doxorubicin, reference compound]
IC50 ([1]; Homo sapiens, MCF7, 72 h): 0.1 µM
IC50 [4]: 30.2 ± 1.29 µM

O=c1[nH]cc(F)c(=O)[nH]1 [5-Fluorouracil, reference compound]
IC50 ([1]; Homo sapiens, MCF7, 72 h): > 10 µM
IC50 MCF-10A [4]: NI (No inhibition (<10% inhibition at 60 μM))

CC1=CC(=O)[C@@H](O)[C@]2(C)[C@H]3[C@]4(O)OC[C@]35[C@H]([C@@H](C)[C@H]4O)[C@@H](O)C(=O)O[C@@H]5C[C@@H]12 [(−)-Glaucarubolone, (−)-glaucarubolone]
IC50 CCD18 Co [8]: NI (No inhibition (<10% inhibition at 60 μM))
IC50 MCF-10A [4]: NI (No inhibition (<10% inhibition at 60 μM))
IC50 HT29 [5]: NI (No inhibition (<10% inhibition at 60 μM))
